According to US20100285959A1, “HERBICIDAL MIXTURES” (priority 2006, published 2010):

Assays:
Experiment in all cases: Test 4 field trial, postemergence
wild buckwheat (POLCO) = type: in vivo, Polygonum convolvulus; settings: clodinafop 56 or fenoxaprop 90 g a.i./ha alone
Protocol: (§1) A field trial was conducted to evaluate the effects of mixtures of Compound 2 with commercial herbicides on spring wheat (TRZAS, Triticum aestivum L.) and several weed species. Wheat seeds (cv. ‘AC Intrepid’) were planted in late spring season, 3.8 cm deep in a loam soil having 2.7% organic matter and a pH of 7. Plots were 6 m long by 2.5 m wide. The field was managed using no-till practices. The plots were arranged in a randomized complete block design with each treatment being replicated four times. Treatments were applied postemergence 25 days after planting using a backpack sprayer delivering a spray volume of 55 L/ha using a pressure of 276 kPa. […] Compound 2 and clodinafop treatments, alone and in combination, also included a surfactant. Weed species present in the experimental plots in sufficient quantity to be evaluated included wild oat (AVEFA, Avena fatua L.), common lambsquarters (CHEAL, Chenopodium album L.), kochia (KCHSC, Kochia scoparia (L.) Schrad.), wild buckwheat (POLCO, Polygonum convolvulus L.), Russian thistle (SASKR, Salsola kali L. ssp. ruthenica (Iljin) Soo), and field pennycress (THLAR, Thlaspi arvense L.). […] Common lambsquarters was evaluated only at 14 days after application. […] Results are the means of the four replicates.

spring wheat (TRZAS) = settings: clodinafop 56 or fenoxaprop 90 g a.i./ha alone
Protocol: as §1

kochia (KCHSC) = type: in vivo, Kochia scoparia; settings: clodinafop 56 g a.i./ha alone
Protocol: as §1

field pennycress (THLAR) = type: in vivo, Thlaspi arvense; set-up: scale not given here; settings: clodinafop 56 or fenoxaprop 90 g a.i./ha alone
Protocol: as §1

[1] = test system: common lambsquarters (CHEAL); type: in vivo, Chenopodium album; settings: clodinafop 56 or fenoxaprop 90 g a.i./ha alone
Russian thistle (SASKR) = type: in vivo, Salsola kali; set-up: scale not given here; settings: clodinafop 56 or fenoxaprop 90 g a.i./ha alone
Protocol: as §1

wild oat (AVEFA) = type: in vivo, Avena fatua; set-up: scale not given here; settings: clodinafop 56 or fenoxaprop 90 g a.i./ha alone
Protocol: as §1

C[C@@H](Oc1ccc(Oc2ncc(Cl)cc2F)cc1)C(=O)O [Clodinafop]
POLCO Obs (wild buckwheat (POLCO); 14 DAA): 0
POLCO Obs (wild buckwheat (POLCO); 35 DAA): 0
TRZAS Obs (spring wheat (TRZAS); 14 DAA): 0
TRZAS Obs (spring wheat (TRZAS); 35 DAA): 0
TRZAS Obs (spring wheat (TRZAS); 55 DAA): 0
KCHSC Obs (kochia (KCHSC); 14 DAA): 0
KCHSC Obs (kochia (KCHSC); 35 DAA): 0
THLAR Obs (field pennycress (THLAR); 14 DAA): 0
THLAR Obs (field pennycress (THLAR); 35 DAA): 0
CHEAL Obs ([1]; 14 DAA): 0
CHEAL Obs ([1]; 35 DAA): 0
SASKR Obs (Russian thistle (SASKR); 14 DAA): 0
SASKR Obs (Russian thistle (SASKR); 35 DAA): 0
AVEFA Obs (wild oat (AVEFA); 14 DAA): 97
AVEFA Obs (wild oat (AVEFA); 35 DAA): 99
AVEFA Obs (wild oat (AVEFA); 55 DAA): 98
